{"source": "patent US7501384B2", "about": "“Crystalline modification of the anhydrate of boscalid” (BASF Aktiengesellschaft, priority 2003, dated 2009)", "experiment": "Tank mixing compatibility: 5% suspension of water-dispersible granules in CIPAC D water mixed with 1% Solvesso 200, stored, solid residue on 75 μm sieve determined", "assay_type": "physicochemical", "protocol": "Comparison of the Tank Mixing Compatibility: For this purpose, both water-dispersible granules of the above composition, comprising anhydrate of the compound of the formula I of modification I (formulation A), and water-dispersible granules of anhydrate of the compound of the formula I of modification II (formation B) were prepared. A 5% strength suspension of the respective water-dispersible granules in CIPAC D water (Ca^++/Mg^++ (4:1) hardness of 342 ppm and pH of from 6.0 to 7.0 was then prepared. This suspension was then mixed with 1% of Solvesso 200 (mixture of aromatic hydrocarbons) as a typical solvent for solvent-containing liquid formulations (e.g. EC). The corresponding spray liquor was then stored over a certain period at a certain temperature. For assessing the quality, the solid residue on a 75 μm sieve was determined after the storage.", "data": [{"smiles": "O=C(Nc1ccccc1-c1ccc(Cl)cc1)c1cccnc1Cl", "note": "[modification II, 2-chloro-N-(4′-chlorobiphenyl-2-yl)-nicotinamide]", "values": [{"measurement": "crystal growth in the presence of solvents", "result": "scarcely any crystal growth"}]}]}
